Measured values from patent US8853215B2, “Derivatives of N-acyl-N′-phenylpiperazine useful (inter alia) for the prophylaxis or treatment of diabetes” (Takeda Pharmaceutical Company Limited, priority 2009, dated 2014).

Tests used:
RBP4 = RBP4 (Rattus norvegicus (Rat), UniProt P04916); experiment: Single administration test in Wistar fatty rats, plasma RBP4 by ELISA; type: in vivo; conditions: male Wistar fatty rats, 10 mg/kg oral single dose, mean±SD
Protocol: The action of the compounds of the present invention to lower plasma RBP4 level was evaluated using the animal model shown below.
Male Wistar fatty rats (fa/fa) were bred in Takeda Pharmaceutical Company Limited and maintained on normal diet (CE2, CLAE Japan, Inc.) and tap water. Animals were housed in a temperature-controlled room adjusted to a 12-hour light/12-hour dark cycle beginning at 7:00 and 19:00, respectively. All procedures were conducted according to the experimental animal care use committee of Takeda Pharmaceutical Company.
Male 13-43-week-old Wistar fatty rats were divided into groups randomly. Compounds were suspended in 0.5% (w/v) methylcellulose in water and given orally to Wistar fatty rats at a dose of 10 mg/10 mL/kg of body weight (3-5 rats per group). Blood samples were obtained from tail vein with sodium heparin as an anticoagulant at time 0 hr (just before the administration), 4 hr, 7 hr, and 24 hr after the administration, followed by plasma separation by centrifugation. Plasma RBP4 levels were measured by enzyme-linked immunosorbent assay described in the following section.
Plasma samples were analyzed in duplicate for RBP4 by an enzyme-linked immunosorbent assay. Mouse recombinant RBP4 (Takeda Pharmaceutical Company Limited) was used as standards, and the assay range was 0.313-20 ng/ml. Samples were diluted 10,000-fold with phosphate-buffered saline (PBS) (Sigma) containing 10% (w/v) BlockAce (Dainippon Sumitomo Pharma Co., Ltd). Rabbit anti-RBP4 polyclonal antibody (100 μL/well of 50 μg/mL, Hokudo Co, Ltd) was incubated in a 96-well plate (Nalge Nunc International K.K.) for overnight at 4° C. Subsequently, the plates were washed with PBS-T (Wako Pure Chemical Industries, Ltd.) and blocked with PBS containing 25% BlockAce for 1 hr at room temperature. After another washing with PBS-T, samples and standards were applied to the well, and the plates were incubated for 2 hr at room temperature. After a washing the wells, peroxidase-labeled (Dojindo Laboratories) anti-RBP4 (100 μL/well) was added to the wells, and then the plates were incubated for 1 hr at room temperature. After a final washing with PBS-T, substrate solution 3,3,5,5-tetramethylbenzidine (Sigma) was added to the wells, and the plates were placed in the dark for 5-20 min at room temperature. The reaction was stopped with 0.5 M sulphuric acid and the optical density was measured with a spectrophotometer at 450 nm. The changes in plasma RBP4 levels were expressed as % of initial/Control. All data are presented as mean±SD.

human RBP4 = human RBP4 (Homo sapiens (Human), UniProt P02753); experiment: Binding assay by Retinol-RBP4-TTR ELISA
Method in brief: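 Biotinylated human TTR was captured on streptavidin plates, then His-tagged human RBP4 was added with compound premixed with 50 nM retinol (8 doses). Binding ran 2 h at room temperature in 50 mM Tris-HCl, 150 mM NaCl, 0.005% Tween 20, 1 mM DTT, 0.1% BSA, read by luminescence. Inhibition was scaled between retinol+DMSO and retinol-free controls, and IC50 fitted.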

CC(C)(C)c1ccccc1N1CCN(C(=O)C(=O)O)CC1 [Example 44, 2-[4-(2-tert-Butylphenyl)piperazin-1-yl]-2-oxoacetic acid]
RBP4 (% of initial/Control) 0 hr (RBP4; 0 hr (just before the administration)): 100.0 ± 13.8 % of initial/Control | RBP4 (% of initial/Control) 4 hr (RBP4; 4 hr after administration): 59.6 ± 14.5 % of initial/Control | RBP4 (% of initial/Control) 7 hr (RBP4; 7 hr after administration): 58.5 ± 5.6 % of initial/Control | RBP4 (% of initial/Control) 24 hr (RBP4; 24 hr after administration): 106.0 ± 16.1 % of initial/Control | inhibition at 10 µM (human RBP4; at 10 μM compound, read-out: human RBP4 binding inhibitory activity(% at 10 μM)): 100% | IC50 (human RBP4; retinol 50 nM, His-tagged human RBP4, biotinylated human TTR, read-out: human RBP4 binding inhibitory activity (IC50 nM)): 38 nM
